According to the NIST ThermoML archive (doi:10.1021/je1011604):
± gives the expanded uncertainty stated by the source.

Tests used:
[1] = 101.33 kPa, Liquid, Pycnometric method
[2] = xn = mol fraction of the nth substance listed; conditions: 101 kPa, Liquid, Capillary tube (Ostwald / Ubbelohde) method

c1ccccc1 [benzene]
mass density ([1]; 303.15 K): 868.1 ± 0.5 kg/m3
mass density ([1]; 313.15 K): 857.4 ± 0.6 kg/m3
mass density ([1]; 323.15 K): 846.6 ± 0.6 kg/m3

c1ccccc1 [benzene] + CCC(C)=O
viscosity ([2]; 303.15 K, x2 = 0): 0.564 ± 0.011 mPa·s
viscosity ([2]; 313.15 K, x2 = 0): 0.498 ± 0.011 mPa·s
viscosity ([2]; 323.15 K, x2 = 0): 0.442 ± 0.011 mPa·s

CCC(C)=O [butanone]
mass density ([1]; 303.15 K): 794.6 ± 0.8 kg/m3
mass density ([1]; 313.15 K): 784 ± 0.8 kg/m3
mass density ([1]; 323.15 K): 773.3 ± 0.8 kg/m3

CCC(C)=O [butanone] + c1ccccc1
viscosity ([2]; 303.15 K, x1 = 0.101): 0.534 ± 0.011 mPa·s
viscosity ([2]; 303.15 K, x1 = 0.1999): 0.508 ± 0.011 mPa·s
viscosity ([2]; 303.15 K, x1 = 0.2988): 0.478 ± 0.011 mPa·s
viscosity ([2]; 303.15 K, x1 = 0.3969): 0.452 ± 0.011 mPa·s
viscosity ([2]; 303.15 K, x1 = 0.4996): 0.432 ± 0.011 mPa·s
viscosity ([2]; 303.15 K, x1 = 0.5988): 0.417 ± 0.011 mPa·s
viscosity ([2]; 303.15 K, x1 = 0.6993): 0.401 ± 0.011 mPa·s
viscosity ([2]; 303.15 K, x1 = 0.7931): 0.389 ± 0.011 mPa·s
viscosity ([2]; 303.15 K, x1 = 0.8961): 0.376 ± 0.011 mPa·s
viscosity ([2]; 303.15 K, x1 = 1): 0.367 ± 0.011 mPa·s
viscosity ([2]; 313.15 K, x1 = 0.101): 0.473 ± 0.011 mPa·s
viscosity ([2]; 313.15 K, x1 = 0.1999): 0.448 ± 0.011 mPa·s
viscosity ([2]; 313.15 K, x1 = 0.2988): 0.427 ± 0.011 mPa·s
viscosity ([2]; 313.15 K, x1 = 0.3969): 0.409 ± 0.011 mPa·s
viscosity ([2]; 313.15 K, x1 = 0.4996): 0.393 ± 0.011 mPa·s
viscosity ([2]; 313.15 K, x1 = 0.5988): 0.378 ± 0.011 mPa·s
viscosity ([2]; 313.15 K, x1 = 0.6993): 0.367 ± 0.011 mPa·s
viscosity ([2]; 313.15 K, x1 = 0.7931): 0.355 ± 0.011 mPa·s
viscosity ([2]; 313.15 K, x1 = 0.8961): 0.345 ± 0.011 mPa·s
viscosity ([2]; 313.15 K, x1 = 1): 0.334 ± 0.011 mPa·s
viscosity ([2]; 323.15 K, x1 = 0.101): 0.422 ± 0.011 mPa·s
viscosity ([2]; 323.15 K, x1 = 0.1999): 0.403 ± 0.011 mPa·s
viscosity ([2]; 323.15 K, x1 = 0.2988): 0.384 ± 0.011 mPa·s
viscosity ([2]; 323.15 K, x1 = 0.3969): 0.369 ± 0.011 mPa·s
viscosity ([2]; 323.15 K, x1 = 0.4996): 0.354 ± 0.011 mPa·s
viscosity ([2]; 323.15 K, x1 = 0.5988): 0.343 ± 0.011 mPa·s
viscosity ([2]; 323.15 K, x1 = 0.6993): 0.333 ± 0.011 mPa·s
viscosity ([2]; 323.15 K, x1 = 0.7931): 0.324 ± 0.011 mPa·s
viscosity ([2]; 323.15 K, x1 = 0.8961): 0.316 ± 0.011 mPa·s
viscosity ([2]; 323.15 K, x1 = 1): 0.306 ± 0.011 mPa·s
